Results from the supplement of paper PMC10627819.

Columns and labels:
[1] = tested on: S. aureus DSM 20231; assay: fitness (endpoint OD595 vs no drug) (fraction); higher = more growth
Procedure, shortened: (§1)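 At 37 °C, bacteria in TSB, LB Lennox or CY were grown in 384-well plates from a starting OD595 of 0.01. OD595 was measured every 30 min for 14 h, with the first reading used as background. Fitness is the optical density at the switch to stationary phase as a fraction of the robust mean of no-drug control wells, capped at 1.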

[2] = tested on: S. aureus Newman; assay: as above
Procedure, shortened: as §1

[3] = tested on: S. pneumoniae D39V; assay: as above
Procedure, shortened: as §1

[4] = tested on: B. subtilis 168; assay: Bliss interaction score (quartile over a dose matrix) (fitness difference); higher = more antagonism (negative = synergy)
Procedure, shortened: (§2)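 Growth was read as OD595 when cultures entered stationary phase, and each value was divided by the plate's robust no-drug mean and capped at 1. This normalised ratio is the fitness value, and fitness for each single drug came from the combination data. The Bliss score subtracts the expected fitness, taken as the product, from the observed fitness and is given as quartiles across technical, biological and donor/recipient replicates.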

[5] = tested on: S. aureus DSM 20231; assay: as above
Procedure, shortened: as §2

[6] = tested on: S. aureus Newman; assay: as above
Procedure, shortened: as §2

[7] = tested on: S. pneumoniae D39V; assay: as above
Procedure, shortened: as §2
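Wherever Bliss interaction score (quartile over a dose matrix) is given: first quartile when negative (synergy) and third quartile when positive (antagonism).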
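Wherever fitness (endpoint OD595 vs no drug) is given: OD595 on entry to stationary phase over no-drug wells; at most 1.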

C[C@@H]1O[C@@H]1P(=O)(O)O [Fosfomycin] + CN[C@H](CC(C)C)C(=O)N[C@H]1C(=O)N[C@@H](CC(N)=O)C(=O)N[C@H]2C(=O)N[C@H]3C(=O)N[C@H](C(=O)N[C@H](C(=O)O)c4cc(O)cc(O)c4-c4cc3ccc4O)[C@H](O)c3ccc(c(Cl)c3)Oc3cc2cc(c3O[C@@H]2O[C@H](CO)[C@@H](O)[C@H](O)[C@H]2O[C@H]2C[C@](C)(N)[C@H](O)[C@H](C)O2)Oc2ccc(cc2Cl)[C@H]1O [Vancomycin]
Settings | fitness
[1], first compound 0.781 µg/mL, partner 0.1875 µg/mL | 0.757
[1], first compound 0.781 µg/mL, partner 0.375 µg/mL | 0.751
[1], first compound 0.781 µg/mL, partner 0.75 µg/mL | 0.757
[1], first compound 1.562 µg/mL, partner 0.1875 µg/mL | 0.596
[1], first compound 1.562 µg/mL, partner 0.375 µg/mL | 0.638
[1], first compound 1.562 µg/mL, partner 0.75 µg/mL | 0.624
[1], first compound 3.124 µg/mL, partner 0.1875 µg/mL | 0.525
[1], first compound 3.124 µg/mL, partner 0.375 µg/mL | 0.546
[1], first compound 3.124 µg/mL, partner 0.75 µg/mL | 0.542
[2], first compound 0.781 µg/mL, partner 0.1875 µg/mL | 0.649
[2], first compound 0.781 µg/mL, partner 0.375 µg/mL | 0.628
[2], first compound 0.781 µg/mL, partner 0.75 µg/mL | 0.655
[2], first compound 1.562 µg/mL, partner 0.1875 µg/mL | 0.555
[2], first compound 1.562 µg/mL, partner 0.375 µg/mL | 0.563
[2], first compound 1.562 µg/mL, partner 0.75 µg/mL | 0.548
[2], first compound 3.124 µg/mL, partner 0.1875 µg/mL | 0.279
[2], first compound 3.124 µg/mL, partner 0.375 µg/mL | 0.255
[2], first compound 3.124 µg/mL, partner 0.75 µg/mL | 0.245
[3], first compound 1.25 µg/mL, partner 0.03125 µg/mL | 0.97
[3], first compound 1.25 µg/mL, partner 0.0625 µg/mL | 0.916
[3], first compound 1.25 µg/mL, partner 0.125 µg/mL | 0.905
[3], first compound 1.25 µg/mL, partner 0.5 µg/mL | 0.0887
[3], first compound 2.5 µg/mL, partner 0.03125 µg/mL | 0.87
[3], first compound 2.5 µg/mL, partner 0.0625 µg/mL | 0.869
[3], first compound 2.5 µg/mL, partner 0.125 µg/mL | 0.888
[3], first compound 2.5 µg/mL, partner 0.5 µg/mL | 0.0855
[3], first compound 5 µg/mL, partner 0.03125 µg/mL | 0.719
[3], first compound 5 µg/mL, partner 0.0625 µg/mL | 0.726
[3], first compound 5 µg/mL, partner 0.25 µg/mL | 0.255
[3], first compound 5 µg/mL, partner 0.5 µg/mL | 0.0851

Settings | Bliss interaction score
[4] | 0.029
[5] | 0.0454
[6] | 0.103
[7] | -0.0646

COc1cccc2c1C(=O)c1c(O)c3c(c(O)c1C2=O)C[C@@](O)(C(=O)CO)C[C@@H]3O[C@H]1C[C@H](N)[C@H](O)[C@H](C)O1 [Doxorubicin] + Cn1nnc(-c2ccc(-c3ccc(N4C[C@H](CO)OC4=O)cc3F)cn2)n1 [Tedizolid]
fitness
Settings | partner 0.03125 µg/mL | partner 0.0625 µg/mL | partner 0.125 µg/mL | partner 0.25 µg/mL | partner 0.5 µg/mL
[1], first compound 0.625 µg/mL | – | 0.813 | 0.728 | 0.339 | –
[1], first compound 1.25 µg/mL | – | 0.783 | 0.7 | 0.374 | –
[1], first compound 2.5 µg/mL | – | 0.738 | 0.673 | – | –
[2], first compound 0.625 µg/mL | – | 0.786 | 0.758 | – | –
[2], first compound 1.25 µg/mL | – | 0.751 | 0.731 | – | –
[2], first compound 2.5 µg/mL | – | 0.693 | 0.655 | – | –
[3], first compound 0.25 µg/mL | 0.897 | 0.909 | 0.747 | 0.288 | 0.131
[3], first compound 0.5 µg/mL | 0.903 | 0.938 | 0.748 | 0.288 | 0.114
[3], first compound 1 µg/mL | 0.917 | 0.953 | 0.774 | 0.282 | 0.11

Settings | Bliss interaction score
[4] | 0.0912
[5] | -0.0759
[6] | -0.0534
[7] | -0.0807

COc1cccc2c1C(=O)c1c(O)c3c(c(O)c1C2=O)C[C@@](O)(C(=O)CO)C[C@@H]3O[C@H]1C[C@H](N)[C@H](O)[C@H](C)O1 [Doxorubicin] + CN[C@H](CC(C)C)C(=O)N[C@H]1C(=O)N[C@@H](CC(N)=O)C(=O)N[C@H]2C(=O)N[C@H]3C(=O)N[C@H](C(=O)N[C@H](C(=O)O)c4cc(O)cc(O)c4-c4cc3ccc4O)[C@H](O)c3ccc(c(Cl)c3)Oc3cc2cc(c3O[C@@H]2O[C@H](CO)[C@@H](O)[C@H](O)[C@H]2O[C@H]2C[C@](C)(N)[C@H](O)[C@H](C)O2)Oc2ccc(cc2Cl)[C@H]1O [Vancomycin]
Settings | fitness
[1], first compound 0.625 µg/mL, partner 0.1875 µg/mL | 0.843
[1], first compound 0.625 µg/mL, partner 0.375 µg/mL | 0.869
[1], first compound 0.625 µg/mL, partner 0.75 µg/mL | 0.888
[1], first compound 1.25 µg/mL, partner 0.1875 µg/mL | 0.84
[1], first compound 1.25 µg/mL, partner 0.375 µg/mL | 0.927
[1], first compound 1.25 µg/mL, partner 0.75 µg/mL | 0.894
[1], first compound 2.5 µg/mL, partner 0.1875 µg/mL | 0.787
[1], first compound 2.5 µg/mL, partner 0.375 µg/mL | 0.952
[1], first compound 2.5 µg/mL, partner 0.75 µg/mL | 0.907
[2], first compound 0.625 µg/mL, partner 0.1875 µg/mL | 0.849
[2], first compound 0.625 µg/mL, partner 0.375 µg/mL | 0.825
[2], first compound 0.625 µg/mL, partner 0.75 µg/mL | 0.851
[2], first compound 1.25 µg/mL, partner 0.1875 µg/mL | 0.823
[2], first compound 1.25 µg/mL, partner 0.375 µg/mL | 0.814
[2], first compound 1.25 µg/mL, partner 0.75 µg/mL | 0.794
[2], first compound 2.5 µg/mL, partner 0.1875 µg/mL | 0.764
[2], first compound 2.5 µg/mL, partner 0.375 µg/mL | 0.745
[2], first compound 2.5 µg/mL, partner 0.75 µg/mL | 0.731
[3], first compound 0.25 µg/mL, partner 0.03125 µg/mL | 0.92
[3], first compound 0.25 µg/mL, partner 0.0625 µg/mL | 0.851
[3], first compound 0.25 µg/mL, partner 0.125 µg/mL | 0.88
[3], first compound 0.25 µg/mL, partner 0.5 µg/mL | 0.0816
[3], first compound 0.5 µg/mL, partner 0.03125 µg/mL | 0.924
[3], first compound 0.5 µg/mL, partner 0.0625 µg/mL | 0.898
[3], first compound 0.5 µg/mL, partner 0.125 µg/mL | 0.913
[3], first compound 0.5 µg/mL, partner 0.5 µg/mL | 0.0725
[3], first compound 1 µg/mL, partner 0.03125 µg/mL | 0.865
[3], first compound 1 µg/mL, partner 0.0625 µg/mL | 0.8
[3], first compound 1 µg/mL, partner 0.25 µg/mL | 0.377
[3], first compound 1 µg/mL, partner 0.5 µg/mL | 0.0604

Settings | Bliss interaction score
[4] | -0.0982
[5] | -0.0449
[6] | -0.0426
[7] | 0.048
